Values joined by “and” are separate entries in the source; they are usually repeats but may differ in a detail not shown here. Identical values can stand only once. ± gives the expanded uncertainty stated by the source.
Experiment: wn = mass fraction of the nth substance listed
Conditions: 101 kPa, Liquid, Alternating current cell with electrodes, w1 = 0.01

CCCCCCCCCCCC[N+](CC)(CC)CCCCCCCCCCCC.[Br-] [didodecyldiethylammonium bromide] + O
Conditions	electrical conductivity
279.25 K	0.00329 ± 0.0013 S/m
279.35 K	0.00328 ± 0.0013 S/m
279.45 K	0.00328 ± 0.0013 S/m
279.55 K	0.00328 ± 0.0013 S/m
279.65 K	0.00329 ± 0.0013 S/m
279.75 K	0.00331 S/m and 0.00332 S/m
279.85 K	0.00335 ± 0.0013 S/m
279.95 K	0.00338 S/m and 0.00343 S/m
280.15 K	0.00345 ± 0.0014 S/m
280.25 K	0.00348 ± 0.0014 S/m
280.35 K	0.00355 ± 0.0014 S/m
280.45 K	0.00357 ± 0.0014 S/m
280.55 K	0.00359 ± 0.0014 S/m
280.65 K	0.0036 ± 0.0014 S/m
280.75 K	0.00364 ± 0.0015 S/m
280.85 K	0.0037 S/m and 0.00371 S/m
280.95 K	0.00378 ± 0.0015 S/m
281.05 K	0.00381 ± 0.0015 S/m
281.15 K	0.00381 ± 0.0015 S/m
281.25 K	0.00371 ± 0.0015 S/m
281.35 K	0.00377 ± 0.0015 S/m
281.45 K	0.00374 ± 0.0015 S/m
281.55 K	0.00378 ± 0.0015 S/m
281.65 K	0.00378 ± 0.0015 S/m
281.85 K	0.00378 ± 0.0015 S/m
281.95 K	0.00374 ± 0.0015 S/m
282.05 K	0.00366 ± 0.0015 S/m
282.25 K	0.00373 ± 0.0015 S/m
282.45 K	0.00366 ± 0.0015 S/m
282.65 K	0.00365 ± 0.0015 S/m
282.75 K	0.00364 ± 0.0015 S/m
282.85 K	0.00356 ± 0.0014 S/m
283.05 K	0.00356 ± 0.0014 S/m
283.15 K	0.0036 ± 0.0014 S/m
283.35 K	0.0034 ± 0.0014 S/m
283.45 K	0.0036 ± 0.0014 S/m
283.55 K	0.00354 ± 0.0014 S/m
283.75 K	0.0035 ± 0.0014 S/m
283.85 K	0.00351 ± 0.0014 S/m
283.95 K	0.00346 ± 0.0014 S/m
284.05 K	0.0035 ± 0.0014 S/m
284.25 K	0.00354 ± 0.0014 S/m
284.35 K	0.00354 ± 0.0014 S/m
284.55 K	0.0034 ± 0.0014 S/m
284.65 K	0.00355 ± 0.0014 S/m
284.75 K	0.0035 ± 0.0014 S/m
284.85 K	0.00345 ± 0.0014 S/m
284.95 K	0.00352 ± 0.0014 S/m
285.05 K	0.00342 ± 0.0014 S/m
285.15 K	0.00344 ± 0.0014 S/m
285.25 K	0.0035 ± 0.0014 S/m
285.35 K	0.00344 ± 0.0014 S/m
285.45 K	0.00344 ± 0.0014 S/m
285.55 K	0.00342 ± 0.0014 S/m
285.65 K	0.00343 ± 0.0014 S/m
285.75 K	0.0034 ± 0.0014 S/m
285.85 K	0.00342 ± 0.0014 S/m
285.95 K	0.00343 ± 0.0014 S/m
286.05 K	0.00348 ± 0.0014 S/m
286.15 K	0.0034 ± 0.0014 S/m
286.25 K	0.00342 ± 0.0014 S/m
286.35 K	0.00341 ± 0.0014 S/m
286.45 K	0.00343 ± 0.0014 S/m
286.55 K	0.00339 ± 0.0014 S/m
286.65 K	0.0034 ± 0.0014 S/m
286.75 K	0.00347 ± 0.0014 S/m
286.95 K	0.00347 ± 0.0014 S/m
287.05 K	0.00347 ± 0.0014 S/m
287.15 K	0.00344 ± 0.0014 S/m
287.25 K	0.00341 ± 0.0014 S/m
287.35 K	0.00345 ± 0.0014 S/m
287.45 K	0.00347 ± 0.0014 S/m
287.55 K	0.00345 ± 0.0014 S/m
287.65 K	0.00341 ± 0.0014 S/m
287.75 K	0.00342 ± 0.0014 S/m
287.85 K	0.00343 ± 0.0014 S/m
287.95 K	0.00348 ± 0.0014 S/m
288.05 K	0.00344 ± 0.0014 S/m
288.15 K	0.00345 ± 0.0014 S/m
288.25 K	0.00342 ± 0.0014 S/m
288.45 K	0.0035 ± 0.0014 S/m
288.55 K	0.00357 ± 0.0014 S/m
288.65 K	0.00345 ± 0.0014 S/m
288.75 K	0.0035 ± 0.0014 S/m
288.85 K	0.00345 ± 0.0014 S/m
288.95 K	0.00346 ± 0.0014 S/m
289.05 K	0.00344 ± 0.0014 S/m
289.15 K	0.00349 ± 0.0014 S/m
289.25 K	0.00346 ± 0.0014 S/m
289.35 K	0.00352 ± 0.0014 S/m
289.45 K	0.00346 ± 0.0014 S/m
289.55 K	0.00347 ± 0.0014 S/m
289.65 K	0.00352 ± 0.0014 S/m
289.75 K	0.00352 ± 0.0014 S/m
289.85 K	0.00352 ± 0.0014 S/m
289.95 K	0.00351 ± 0.0014 S/m
290.05 K	0.00357 ± 0.0014 S/m
290.15 K	0.00348 ± 0.0014 S/m
290.25 K	0.0035 ± 0.0014 S/m
290.35 K	0.00347 ± 0.0014 S/m
290.55 K	0.00355 ± 0.0014 S/m
290.65 K	0.00364 ± 0.0015 S/m
290.75 K	0.00356 ± 0.0014 S/m
290.85 K	0.00359 ± 0.0014 S/m
290.95 K	0.0036 ± 0.0014 S/m
291.05 K	0.00358 ± 0.0014 S/m
291.15 K	0.00361 ± 0.0014 S/m
291.25 K	0.00357 ± 0.0014 S/m
291.35 K	0.00362 ± 0.0014 S/m
291.45 K	0.0036 ± 0.0014 S/m
291.55 K	0.00366 ± 0.0015 S/m
291.65 K	0.00359 ± 0.0014 S/m
291.75 K	0.0036 ± 0.0014 S/m
291.85 K	0.00363 ± 0.0014 S/m
291.95 K	0.00362 ± 0.0014 S/m
292.05 K	0.00364 ± 0.0015 S/m
292.15 K	0.00366 ± 0.0015 S/m
292.25 K	0.00366 ± 0.0015 S/m
292.35 K	0.00367 ± 0.0015 S/m
292.45 K	0.00362 ± 0.0014 S/m
292.55 K	0.00374 ± 0.0015 S/m
292.65 K	0.00369 ± 0.0015 S/m
292.75 K	0.00367 ± 0.0015 S/m
292.85 K	0.00372 ± 0.0015 S/m
292.95 K	0.00369 ± 0.0015 S/m
293.05 K	0.00378 ± 0.0015 S/m
293.15 K	0.00377 ± 0.0015 S/m
293.25 K	0.00376 ± 0.0015 S/m
293.35 K	0.00376 ± 0.0015 S/m
293.45 K	0.0037 ± 0.0015 S/m
293.55 K	0.00375 ± 0.0015 S/m
293.65 K	0.00376 ± 0.0015 S/m
293.75 K	0.00372 ± 0.0015 S/m
293.85 K	0.00383 ± 0.0015 S/m
293.95 K	0.00378 ± 0.0015 S/m
294.05 K	0.0038 ± 0.0015 S/m
294.15 K	0.00381 ± 0.0015 S/m
294.25 K	0.0038 ± 0.0015 S/m
294.35 K	0.00381 ± 0.0015 S/m
294.45 K	0.00383 ± 0.0015 S/m
294.55 K	0.00382 ± 0.0015 S/m
294.65 K	0.00384 ± 0.0015 S/m
294.75 K	0.00385 ± 0.0015 S/m
294.85 K	0.00386 ± 0.0015 S/m
294.95 K	0.00387 ± 0.0015 S/m
295.05 K	0.00389 ± 0.0016 S/m
295.15 K	0.00389 ± 0.0016 S/m
295.25 K	0.00386 ± 0.0015 S/m
295.35 K	0.00396 ± 0.0016 S/m
295.45 K	0.00395 ± 0.0016 S/m
295.55 K	0.00387 ± 0.0015 S/m
295.65 K	0.00396 ± 0.0016 S/m
296.45 K	0.00389 ± 0.0016 S/m
296.55 K	0.00397 ± 0.0016 S/m
296.75 K	0.00394 ± 0.0016 S/m
297.45 K	0.00396 ± 0.0016 S/m
297.85 K	0.00401 ± 0.0016 S/m
298.15 K	0.00402 ± 0.0016 S/m
298.55 K	0.00399 ± 0.0016 S/m
298.75 K	0.00405 ± 0.0016 S/m
298.95 K	0.00402 ± 0.0016 S/m
299.15 K	0.00407 ± 0.0016 S/m
299.55 K	0.00409 ± 0.0016 S/m
299.75 K	0.00406 ± 0.0016 S/m
300.05 K	0.00407 ± 0.0016 S/m
300.45 K	0.00419 ± 0.0017 S/m
300.75 K	0.00428 ± 0.0017 S/m
300.95 K	0.00431 ± 0.0017 S/m
301.55 K	0.00453 ± 0.0018 S/m
301.85 K	0.00472 ± 0.0019 S/m
302.15 K	0.0048 ± 0.0019 S/m
302.35 K	0.005 ± 0.002 S/m
302.75 K	0.00518 ± 0.0021 S/m
303.05 K	0.00543 ± 0.0022 S/m
303.45 K	0.00568 ± 0.0023 S/m
303.75 K	0.00609 ± 0.0024 S/m
304.55 K	0.00686 ± 0.0027 S/m
304.85 K	0.00713 ± 0.0029 S/m
305.15 K	0.00765 ± 0.0031 S/m
305.55 K	0.00812 ± 0.0032 S/m
305.85 K	0.00833 ± 0.0034 S/m
306.05 K	0.00891 ± 0.0036 S/m
306.35 K	0.00946 ± 0.0039 S/m
307.35 K	0.0136 ± 0.0055 S/m
307.55 K	0.0157 ± 0.0063 S/m
307.95 K	0.016 ± 0.0064 S/m
308.25 K	0.0159 ± 0.0063 S/m
308.35 K	0.016 ± 0.0064 S/m
308.75 K	0.0162 ± 0.0065 S/m
308.95 K	0.0165 ± 0.0066 S/m
309.25 K	0.0167 ± 0.0067 S/m
309.75 K	0.0169 ± 0.0067 S/m
310.05 K	0.0171 ± 0.0069 S/m
310.15 K	0.0172 ± 0.0069 S/m
310.45 K	0.0175 ± 0.007 S/m
310.65 K	0.0177 ± 0.0071 S/m
310.85 K	0.0179 ± 0.0072 S/m
311.05 K	0.018 ± 0.0072 S/m
311.25 K	0.0181 ± 0.0073 S/m
311.45 K	0.0183 ± 0.0073 S/m
311.65 K	0.0184 ± 0.0074 S/m
311.75 K	0.0185 ± 0.0074 S/m
311.85 K	0.0187 ± 0.0075 S/m
311.95 K	0.0188 ± 0.0075 S/m
312.15 K	0.0189 ± 0.0076 S/m
312.35 K	0.0192 ± 0.0077 S/m
312.55 K	0.0194 ± 0.0077 S/m
312.65 K	0.0194 ± 0.0077 S/m
312.85 K	0.0196 ± 0.0078 S/m
312.95 K	0.0196 ± 0.0078 S/m
313.35 K	0.0201 ± 0.008 S/m
313.65 K	0.0204 ± 0.0082 S/m
313.85 K	0.0205 ± 0.0082 S/m
313.95 K	0.0207 ± 0.0083 S/m
314.05 K	0.0208 ± 0.0083 S/m
314.15 K	0.0209 ± 0.0084 S/m
314.35 K	0.021 ± 0.0084 S/m
314.45 K	0.0212 ± 0.0085 S/m
314.65 K	0.0213 ± 0.0085 S/m
314.75 K	0.0214 ± 0.0086 S/m
314.85 K	0.0216 ± 0.0086 S/m
314.95 K	0.0217 ± 0.0087 S/m
315.05 K	0.0218 ± 0.0087 S/m
315.15 K	0.0219 ± 0.0088 S/m
315.25 K	0.022 ± 0.0088 S/m
315.35 K	0.0222 ± 0.0089 S/m

— the NIST ThermoML archive (doi:10.1021/acs.jced.5b00367)
